This is an account of results in patent EP1144412B1, “IMMUNOSUPPRESSIVE EFFECTS OF PTERIDINE DERIVATIVES” (4 AZA Bioscience nv, priority 1998, dated 2000).

Assay [1] has as its system Peripheral blood mononuclear cells (PBMC). The assay is described as follows: Mixed lymphocyte reaction (MLR), [3H]-thymidine incorporation. The format is cell-based. The note with it: Homo sapiens. The method in brief: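 Human PBMC from density-gradient separation, stimulated in triplicate by irradiated (30 Gy) allogeneic PBMC or EBV-transformed B cells (RPMI1788, B7-1/B7-2 high). After 5 days at 37 °C, 1 µCi [3H]-thymidine added for 16 h; incorporation counted, percent inhibition computed against drug-free and medium-background cpm.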

The subject of assay [2] is Highly purified T cells. As to the kind of experiment: T cell proliferation induced by anti-CD3 mAb + PMA (BrdU incorporation). Conditions: for IC50: Homo sapiens, T-cell. The format is cell-based, Human. (In general: Incorporation of labelled thymidine or its analogues reports DNA synthesis.)
The test system of assay [3] is Highly purified T cells. The assay is described as follows: T cell proliferation induced by anti-CD28 mAb + PMA (BrdU incorporation). The assay is classed as cell-based, Human. The note with it: for IC50: Homo sapiens, T-cell.
Setting [4] is: Table III, comparison immunosuppressants, read-out: IC50 MLR.
[5] abbreviates: Table III, comparison immunosuppressants, read-out: IC50 aCD3.
Setting [6] is: Table III, comparison immunosuppressants, read-out: IC50 aCD28.

Read-outs that look alike come from different tables or passages of the source.

For `COc1ccc(-c2cnc3nc(NC(C)=O)nc(OC(C)C)c3n2)cc1OC` [Compound 65, 2-acetamido-4-i-propoxy-6-(3,4-dimethoxyphenyl)pteridine], the IC50 in assay [1] (untitled structure table, IC50 subranges, read-out: MLR) was in the range of 1 to 15 µM; with Highly purified T cells [2] (untitled structure table, IC50 subranges, read-out: aCD3) it was 16 to 150 µM; in the assay with Highly purified T cells [3] (untitled structure table, IC50 subranges, read-out: aCD28), 16 to 150 µM.

As for `C=CC[C@@H]1/C=C(\C)C[C@H](C)C[C@H](OC)[C@H]2O[C@@](O)(C(=O)C(=O)N3CCCC[C@H]3C(=O)O[C@H](/C(C)=C/[C@@H]3CC[C@@H](O)[C@H](OC)C3)[C@H](C)[C@@H](O)CC1=O)[C@H](C)C[C@@H]2OC` [FK506, tacrolimus, reference compound], the IC50 (in assay [1] (setting [4]); in the assay with Highly purified T cells [2] (setting [5])) was 0.001 µM each time. Further, the “activity in the anti-CD3 + PMA test” value in the assay with Highly purified T cells [2] is on record as “only active”. For the same compound, in the assay with Highly purified T cells [3], the “activity in the anti-CD28 + PMA test” value was “not suppressive”.

In the case of `Cc1oncc1C(=O)Nc1ccc(C(F)(F)F)cc1` [Leflunomide, reference compound], the IC50 in assay [1] (setting [4]) came out at 25 µM; with Highly purified T cells [2] (setting [5]), 15 µM; with Highly purified T cells [3] (setting [6]), 20 µM.

For `CN(Cc1cnc2nc(N)nc(N)c2n1)c1ccc(C(=O)N[C@@H](CCC(=O)O)C(=O)O)cc1` [MTX, methatroxate, reference compound], the IC50 in assay [1] (setting [4]) is 10 µM; in the assay with Highly purified T cells [2] (setting [5]) it was > 200 µM; in the assay with Highly purified T cells [3] (setting [6]), > 200 µM.

Take `CO[C@H]1C[C@@H]2CC[C@@H](C)[C@@](O)(O2)C(=O)C(=O)N2CCCC[C@H]2C(=O)O[C@H]([C@H](C)C[C@@H]2CC[C@@H](O)[C@H](OC)C2)CC(=O)[C@H](C)/C=C(\C)[C@@H](O)[C@@H](OC)C(=O)[C@H](C)C[C@H](C)/C=C/C=C/C=C/1C` [Rapamycin, reference compound]: the IC50 (in assay [1] (setting [4]); in the assay on Highly purified T cells [2] (setting [5]); with Highly purified T cells [3] (setting [6])) was 0.001 µM each time.
